Test results taken from patent publication US9061981B2, “Diphenyl substituted cyclohexane derivatives, useful as modulators of the estrogen receptors beta” (Acadia Pharmaceuticals Inc., priority 2011, dated 2015).
Like-named read-outs stand apart in the source and are kept apart here.

Assays:
[1] = Brain to plasma ratio in rats; assay type: in vivo
[2] = Microsomal bioavailability (Table 2); assay type: in vitro ADME; settings: read-out: Microsomal bioavailability F (%)
[3] = test system: MCP-1; assay: ELISA for MCP-1 in PBMCs after 6OHDA lesion; assay type: in vivo, rat; settings: 6OHDA rats, blood day 7 post-surgery
Description: (§1) Thus, Compound 8 was assessed to determine whether ERβ agonist treatment might alter the inflammatory profile following bilateral 6OHDA lesions of the SN. ELISAs for tumor necrosis factor α (TNFα), monocyte chemotactic protein 1 (MCP-1 aka CCL2), interleukin-6 (IL-6), and interleukin-1β were conducted in peripheral blood mononuclear cells (PBMCs) and brain tissue homogenates from sham or 6OHDA treated animals. […] Both TNFα and MCP-1 were elevated in PBMCs from 6OHDA animals (data not shown). Thus, these two markers were chosen for further examination. […] Treatment with Compound 8 prevented the rise in TNFα in both brain and PBMCs (FIG. 6). MCP-1 was elevated in PBMCs following 6OHDA when blood was taken on day 7 post-surgery, but not in brain homogenates taken on day 14 (following behavioral testing). The increase in MCP-1 in PBMCs was not prevented by Compound 8 treatment, even though the behavioral profile was normal. Thus, TNFα might be a maker of an inflammatory pathway triggered by 6OHDA infusion and prevented by treatment with an ERβ agonist in a manner that also prevents motor deficits and dopamine neuron loss in the substantia nigra.

[4] = Bioavailability after intravenous and sublingual administration in male beagle dogs; assay type: in vivo; settings: for half-life: 10 mg/kg
Description: In this example, the sublingual bioavailability of Compound 8 was evaluated after intravenous and sublingual doses in male beagle dogs. The test compound was dosed at 1 and 10 mg/kg through intravenous and sublingual routes, respectively. Plasma samples were collected 10 min, 20 min, 30 min, 45 min, 1 hour, 2 hours, 4 hours, 8 hours, 12 hours and 24 hours post dose. Plasma levels were determined by LC-MS/MS analysis. A pre-study standard curve was analyzed to determine the specificity, range and lower limit of quantification of the LC-MS/MS method. The study samples were treated identically to the standards. Pharmacokinetic parameters were estimated by a non-compartmental model using WinNonlin v4.1 software.

[5] = Bioavailability after intravenous, oral and sublingual administration in rat; settings: in vivo, rats
Description: Similarly to the Example above, Compound 8 was also administered to rat intravenously, orally and sublingual. Also the prodrug of Compound 8, i.e. Compound 9, was administered. The bioavailability (% F) indicated for the prodrug Compound 9 is the results of measurements of the bioavailability for Compound 8, which Compound 9 is converted into upon administration. AUC 0-4 was used for calculation of the bioavailability.

[6] = test system: Taxol-induced allodynia; assay: Taxol-induced neuropathy model; assay type: in vivo, male SD rats; settings: 2 hours post-dose
Description: Neuropathy was induced in male SD rats by 4×1 mg/kg consecutive daily doses of taxol as described (Naguib M, Diaz P, Xu J J, Astruc-Diaz F, Craig S, Vivas-Mejia P, Brown D L. MDA7: a novel selective agonist for CB2 receptors that prevents allodynia in rat neuropathic pain models. Br J. Pharmacol. 2008 December; 155(7):1104-16). The presence of tactile allodynia (von Frey filament 50% response threshold of <5 g) was confirmed prior to inclusion in the study. Drugs were administered sub-cutaneously (s.c.) except gabapentin was given intra-peritoneally (i.p.). Doses are given in mg/kg. * p<0.05.
Allodynia was assessed by applying a light tactile stimulus (Von Frey hairs) to the plantar surface of the surgical paw until the 50% threshold was established. A positive response was recorded if the paw was sharply withdrawn. Eight VonFrey hairs were used (3.61, 3.84, 4.08, 4.31, 4.56, 4.74, 4.93 and 5.18). MPE (%) was calculated as [(Rdrug−Rveh)/(Rsham−Rveh)]*100% where Rveh was 4 and Rsham was 13. Repeat dosing (FIG. 10C) was performed by administering the indicated doses of Compound 8 once daily via the s.c. route. Efficacy was measured 2 hours post-dose.

[7] = test system: TNFα; assay: ELISA for TNFα in PBMCs and brain homogenate after 6OHDA lesion; assay type: in vivo, rat; settings: 6OHDA rats
Description: as §1

[8] = test system: L5/L6 spinal nerve ligation; assay: Spinal nerve ligation model of neuropathic pain; assay type: in vivo, male Sprague-Dawley rats; settings: s.c.
Description: Spinal nerve ligation of the L5/L6 nerve was done as originally described by Kim and Chung, using male Sprague-Dawley rats. Allodynia was assessed by applying a light tactile stimulus (Von Frey hairs) to the plantar surface of the surgical paw until the 50% threshold is established. A positive response is recorded if the paw is sharply withdrawn. Eight VonFrey hairs were used (3.61, 3.84, 4.08, 4.31, 4.56, 4.74, 4.93 and 5.18).

[9] = dog intravenous 1 mg/kg vs parameters observed in rats

SMILES: Oc1ccc(C2(c3ccccc3F)CCC(F)(F)CC2)cc1 [Compound 8, 4-(4,4-Difluoro-1-(2-fluorophenyl)cyclohexyl)phenol]
- brain to plasma ratio [1]: good brain to plasma ratio
- Microsomal bioavailability (predicted from microsomes) [2]: 4.2%
- 6OHDA-induced increase of MCP-1 in PBMCs [3]: not prevented
- Cmax increase compared to rats [4, 9]: 2 fold
- clearance decrease compared to rats [4, 9]: 2 fold
- volume of distribution decrease compared to rats [4, 9]: 2 fold
- half-life ([4]; male, beagle, dog, plasma, dog, sublingual 10 mg/kg, read-out: average half-life (converted)): 2.08 ± 0.5 h
- half-life ([4]; male, beagle, dog, plasma, dog, sublingual, as summarised, read-out: half life (converted)): 2 h
- bioavailability ([4]; male, beagle, plasma, other: sublingual, dog, sublingual 10 mg/kg vs intravenous 1 mg/kg, read-out: overall percent bioavailability following sublingual dose): 44%
- clearance ([4]; male, beagle, plasma, dog, intravenous 1 mg/kg): 47 mL/min/kg
- Cmax ([4]; male, beagle, plasma, dog, intravenous 1 mg/kg, read-out: average maximum concentration (Cmax)): 738 ± 199 ng/mL
- Vd ([4]; male, beagle, plasma, dog, intravenous 1 mg/kg, read-out: volume of distribution): 3.5 ± 0.9 L/kg
- Cmax ([4]; male, beagle, plasma, dog, sublingual 10 mg/kg, read-out: Cmax): 1060 ± 110 ng/mL
- bioavailability ([5]; po, Compound 8 dosed orally, read-out: oral bioavailability): ~8%
- bioavailability ([5]; Compound 8 dosed sublingually, read-out: sublingual bioavailability): 79%
- efficacy on repeat dosing ([6]; once daily s.c.): maintained over 5 days
- effect on Taxol-induced allodynia ([6]; s.c. (gabapentin i.p.), Compound 8 at 10 and 30 mg/kg): essentially complete reversal
- 6OHDA-induced increase of TNFα in PBMCs and brain [7]: blocked this increase
- allodynia (Von Frey 50% threshold) [8]: reverses allodynia
